These results are taken from patent US20240058375A1, “CO-FORMULATION OF POLYMYXINS FOR INHALATION” (priority 2021, published 2024).

For data set [1], the system named is A549 cells. The experiment in a line: Cell viability of A549 cells, polymyxin B with or without polyaspartic acid, propidium iodide flow cytometry. The following applies: 1.0 mM polymyxin B alone, 24 h. The data set is classed as cell-based, Human. Here is the method: (§1) Human lung epithelial cells (A549 cells) were obtained from the American Type Culture Collection (ATCC® CCL-185™, Manassas, VA, USA), grown and sub-cultured in Dulbecco's modified Eagle's medium (DMEM) supplemented with 10% fetal bovine serum (FBS). A549 cells (1×10^5 cells/mL, 12-well plate) were seeded in supplemented DMEM at 37° C. in a humidified atmosphere containing 5% CO2 until 70% confluency. All experiments were conducted in three replicates. Cells were treated with 1.0 mM polymyxin B in the presence and absence of polyaspartic acid (0.25, 1.0 and 5.0 mM); and cell viability were examined at 24 h with flow cytometry after staining with propidium iodide. The drug concentrations for different formulations were selected based on our previous results on polymyxin toxicity in human lung epithelial cells. ^18 To assess the protective effect of polyglutamic acid, A549 cells (0.5×10^5 cells/mL, 200 μL/well) were seeded on 96-well plates (#353072, Corning, USA) for overnight at 37° C. Cells were treated with 1.0 mM polymyxin B in the presence and absence of polyglutamic acid (2.5, 5.0 and 10.0 μM). Cell viability was determined at 24 h using propidium iodide staining using EVOS® FL Auto Imaging System (Invitrogen; Approximate fluorescence excitation/emission maxima: 535/617 nm). […] Three random fields containing at least 50 cells per treatment condition were analyzed.
Background: A flow cytometer gives signals particle by particle.

The test system of data set [2] is A549 cells. The experiment in a line: Cell viability of A549 cells, polymyxin B with or without polyglutamic acid, propidium iodide imaging. It counts as cell-based, Human. The note with it: 1.0 mM polymyxin B alone, 24 h. On the procedure:
as §1

In data set [3] the test system is A549 cells. The experiment in a line: Mitochondrial superoxide formation (MitoSOX Red) in A549 cells. The data set is classed as cell-based, Human. The following applies: 1.0 mM polymyxin B alone, 24 h. On the procedure:
(§2) The attenuation of mitochondrial superoxide formation and loss of mitochondrial membrane potential caused by polymyxin B were determined. ^18 A549 cells (0.5×10^5 cells/mL) were grown on 8-well chamber slides ([…] polymer coverslip, ibidi, Germany) for overnight at 37° C. Cells were treated with 1.0 mM polymyxin B in the presence and absence of polyaspartic acid (0.25, 1.0 and 5.0 mM). To assess the formation of mitochondrial superoxide and loss of mitochondrial membrane potential MitoSOX Red dye (Invitrogen; excitation and emission wavelengths of 514 and 531 to 622 nm, respectively) and TMRE (Invitrogen; excitation and emission wavelengths of 561 and 568 to 690 nm, respectively) were employed, respectively. Nuclei were stained with Hoechst 33342 (Invitrogen; excitation and emission wavelengths of 405 and 410 to 551 nm, respectively) to allow cell counting. Fluorescence intensity was quantified by confocal laser scanning microscopy (Leica SP8 inverted microscope equipped with a 63× oil immersion objective). The average fluorescence intensity per cell for each treatment was calculated using ImageJ (45, 46). Three random fields containing at least 50 cells per treatment condition were analyzed and the TMRE fluorescence in untreated control cells was set as 100%.

Data set [4] has as its system A549 cells. The experiment in a line: Mitochondrial membrane potential (TMRE) in A549 cells. It counts as cell-based, Human. The following applies: 1.0 mM polymyxin B alone; untreated control 100%. Here is the method: as §2
Another data set deals with Swiss Albino mice. Nature of the data set: In vivo pulmonary toxicity, lung histopathology with semiquantitative scoring (SQS). On the procedure:
The animal study was approved by the Monash Animal Ethics Committee, Monash University (Victoria, Australia). All experiments were conducted in accordance with the Australian Code of Practice for the Care and Use of Animals for Scientific Purposes. Swiss Albino mice (female; age, 6 weeks; body weight, 20 to 25 g) were obtained from the Monash Animal Research Platform (Clayton, Victoria, Australia). […] Animals were housed individually in metabolic cages and had free access to food and water. Mice were intratracheally administered 10 mg/kg of polymyxin B, 120 mg/kg of polyaspartic acid and the combinations of polyaspartic acid with polymyxin B three times a day.
Histopathological examinations of lungs were performed to assess the pulmonary toxicity by polymyxin B. At 24 h following pulmonary administration, mice were humanely killed and lungs were harvested and fixed in formalin immediately. To avoid any potential artificial damage to the lung epithelium, bronchoalveolar lavage and cardiac puncture were not performed. A semiquantitative scoring (SQS) system was employed to quantify the extent of lung damages. ^20 Briefly, we used the following grades for the severity and nature of the histopathological changes in the lungs: grade 0, no changes or mild changes considered insignificant; grade 1, minimal lesions affecting 1 to 25% of the area; grade 2, multifocal lesions affecting 25 to 50% of the area; and grade 3, severe tissue changes affecting >50% of the area. The grades were given the following scores: grade 0, 0.1; grade 1, 1; grade 2, 4; and grade 3, 10. Percentages of damage across different levels of the lungs were given the following scores: <1%, 0; from 1 to <5%, 1; from 5 to <10%, 2; from 10 to <20%, 3; from 20 to <30%, 4; from 30 to <40%, 5; >40%, 6. The overall lung histology score was determined as the product of the grade and percent damage score. An SQS was assigned the following scores: SQS 0, no significant change; SQS+1, mild damage; SQS+2, mild to moderate damage; SQS+3, moderate damage; SQS+4, moderate to severe damage; and SQS+5, severe damage.

The mark [5] stands for this setting: intratracheal three times a day, 10 mg/kg polymyxin B and/or 120 mg/kg polyaspartic acid, lungs at 24 h.

For the substance polymyxin B sulfate, the Cell viability with A549 cells [1] was 36.7±5.1%. Besides, the Cell viability in the data set with A549 cells [2] is reported as 51.7±5.2%. The “MitoSOX fluorescence intensity, higher compared to the control” value with A549 cells [3] is recorded as above 200 fold. Besides, the “Mitochondrial membrane potential compared to the control” value in the data set with A549 cells [4] was 49.5±7.2%. In the data set with Swiss Albino mice (setting [5]), the “Histological finding in lung” value is recorded as “no macroscopic lesion but severe tissue injury” and the “SQS of lung damage (grade)” value was “+2 to +5”. In addition, in the data set on Swiss Albino mice (intratracheal three times a day, 10 mg/kg polymyxin B or 120 mg/kg polyaspartic acid, lungs at 24 h), the “Lung area affected by tissue injury” value is recorded as 25-50%. Moreover, the “Overall semi-quantitative score (SQS) of lung damage” value in the data set on Swiss Albino mice (mean±SD, 10 mg/kg polymyxin B alone or co-administered with 120 mg/kg polyaspartic acid) is reported as 3.0±1.4.
